Patent US20100196521A1, “Formulation for the treatment of hypoxia and related disorders” (priority 2009, published 2010)

Tests used:
[1] = system: cerebral ischemic hypoxia mice; assay: Cerebral circulatory disturbance hypoxia (common carotid artery and vagus ligation), survival; assay type: in vivo, NIH mice; conditions: group B: 2.0 mg/kg hypodermic injection once a day for 5 days
From the text: Five test groups were designed for this test, namely the negative control group (A), the positive control medicine group (B), and three groups administrated with the test item at the high (C), medium (D), and low (E) dosage levels. SPF class NIH mice were randomly distributed into 12 to 14 pieces in each group. The design of experiment was described in Table 15.
Mice in negative control group (A) were topically applied with vegetable oil, whereas those in positive control group (B) were administrated with Nimodipine by hypodermic injection. Mice in groups (C), (D), and (E) received the test item through skin administration. All the five groups received the corresponding item once a day for 5 consecutive days. 50 minutes after the final administration of the test item, and 30 minutes after the final administration of Nimodipine, the mice were given an intraperitoneal injection of Urethane (8%, 0.8 g/kg.bw, 10 mL/kg.bw) as anesthetics. The mice then underwent a separation of the left and right common carotid artery as well as the vagus, and were separately ligated with a No. 4 suture. Survival duration for the mice were immediately recorded with a stopwatch, with results as follows: […]

[2] = system: methemoglobinemia model mice (sodium nitrite); assay: Sodium nitrite methemoglobinemia model, survival duration; assay type: in vivo, NIH mice; conditions: male quasi; for Survival Duration: observed 90 min; for Prolonged Percentage: vs negative control
From the text: This test was designed according to the relevant provisions of The Management of Medicine Registration issued by the State Food and Drug Administration (SFDA) of the People's Republic of China, and The Assemble of Guiding Principle of Pre-clinical Research on New Drugs (in Western Medicine) from the Bureau of Drug Administration, Ministry of Public Health, People's Republic of China. Five test groups were designed for this test, namely the negative control group (A), the positive control medicine group (B), and three groups administrated with the test item at the high (C), medium (D), and low (E) dosage levels. SPF class NIH mice were randomly distributed into 10-12 pieces (male quasi) in each group. The design of experiment was described in Table 5.
In establishing the methemoglobinemia model, a 2% sodium nitrite was injected into abdomen of the mice (male mice: 240 mg/kg, 12 mL/kg; female mice: 260 mg/kg, 13 mL/kg). Stopwatch was immediately started to record time and simultaneously, vegetable oil or the test item was applied to the mice of the respective group. Mice in the positive control group I (group B-I) were administered with Nimodipine through gastric gavage an hour before model was established, while those in the positive control group II were administered Nimodipine through gastric gavage immediately upon the setting up of the model. […]

[3] = system: decapitated mice (acute cerebral ischemic hypoxia); assay: Global cerebral ischemia (decapitation method), formal test; assay type: in vivo, NIH mice; conditions: group B: 2.0 mg/kg hypodermic injection once a day for 2 days
From the text: Five test groups were designed for this test, namely the negative control group (A), the positive control medicine group (B), and three groups administrated with the test item at the high (C), medium (D), and low (E) dosage levels. SPF class NIH mice were randomly distributed into 14 pieces in each group. The design of experiment was described in Table 9. Mice in negative control group (A) were topically applied with vegetable oil, whereas those in positive control group (B) were administrated with Nimodipine by hypodermic injection once a day for 2 consecutive days. Mice in groups (C), (D), and (E) received the test item through skin administration once a day for 7 consecutive days. 60 minutes after the final administration of the test item and vegetable oil to the mice of the corresponding groups, and 30 minutes after the final administration of Nimodipine to the mice of the positive medicine control group, the heads of mice were rapidly severed from the back of ear root with a pair of sharp scissors (decapitation method). The gasping duration and gasping frequency were immediately recorded with a stopwatch The results are shown as follows: […]

[4] = system: mice in low-pressure hypoxic environment; assay: Hypobaric hypoxia survival test; assay type: in vivo, NIH mice; conditions: group B: 26 mg/kg gastric gavage, male quasi
Experimental: Five test groups were designed for this test, namely the negative control group (A), the positive control medicine group (B), and three groups administrated with the test item at the high (C), medium (D), and low (E) dosage levels. SPF class NIH mice were randomly distributed into 12 pieces in each group. The design of experiment was described in Table 13.
One hour after administrating the positive control medicine, and 30 minutes after applying the test item or the negative control in the corresponding groups, the mice (6 mice/batch, 2 batches/group) were put in consecutive order into the vacuum drier connected with a suction (built in soda lime to absorb CO2 and water). The suction process was started until the air pressure dropped to a certain negative pressure (Male mouse: 580 mmHg; female mouse: 600 mmHg). Then, stopwatch was used to record the survival duration and the number of survivals in each group within 60 minutes.

[5] = system: sodium nitrite induced memory consolidated handicap mice; assay: Memory consolidated handicap model, water maze test; assay type: in vivo, NIH mice; conditions: group B: 1.04 mg/kg intramuscular injection
From the text: […], a cerebral hypoxic agent, was used to establish this memory consolidated handicap model. Due to its strong oxidation property, it could convert low value iron in the hemoglobin into high value iron and thus affects the hemoglobin to lose its anti-oxidative ability, resulting in Methemoglobinemia disease. Brain tissue is the most sensitive tissue to hypoxia and it would be injured once it experienced memory consolidated handicap. Therefore, in the establishment of this model, the applying of […] would affect the space recognition ability of the mice. This test was designed according to the relevant provisions of The Management of Medicine Registration issued by the State Food and Drug Administration (SFDA) of the People's Republic of China, and The Assemble of Guiding Principle of Pre-clinical Research on New Drugs (in Western Medicine) from the Bureau of Drug Administration, Ministry of Public Health, People's Republic of China. Five test groups were designed for this test, namely the negative control group (A), the positive control medicine group (B), and three groups administrated with the test item at the high (C), medium (D), and low (E) dosage levels. […] The design of experiment was described in Table 11. Each group of mice was continuously trained for 5 days, once in the morning and once in the afternoon, for 60 seconds in each training session. Before the training session on the afternoon of the 5th day, sodium nitrite was administered at dose level of 160 mg/kg to the mice through hypodermic injection to induce the mice to experience memory consolidated handicap symptom. 30 minutes after medication, the water maze test was carried out. The aforesaid test was then repeated on the following morning.

[6] = system: sodium nitrite induced hypoxia model mice; assay: Study on blood pH and blood hypoxia (sodium nitrite induced hypoxia animal model); assay type: in vivo, SD mice; conditions: 10 days after
Experimental: In this study regarding oxygen carrying ability of red blood cells, the test item was the formulation as described in Mixture 3 listed in Table 1 (the formulation). First of all, healthy SD mice were fed with sodium nitrite (17 mg/kg) by gastric gavage for 7 consecutive days to induce the hypoxia animal model. The mice were then randomly distributed into 8 groups: (A) normal mice blank control group, (B) normal mice applied with the formulation group (82.5 μL/kg), (C) model mice applied with vitamin C (62.5 mg/kg) control group, (D) model mice applied with vitamin E (104 mg/kg) control group, (E) model mice applied with vegetable oil (82.5 μL/kg) control group, (F) model mice applied with high dose of the formulation (330 μL/kg), (G) model mice applied with medium dose of the formulation (165 μL/kg), (H) model mice applied with low dose of the formulation (82.5 μL/kg). There were 12 mice for each group. On the 7th day of hypoxia model induction, the formulation was applied topically on the mice in the formulation groups (B, F, G and H), and equal amount of vegetable oil was also topically applied on the mice in the group (E). Vitamins C and E were administrated by gastric gavage to mice in groups (C) and (D) respectively. 10 days after the application of the corresponding items, blood samples were taken in which blood pH, arterial oxygen partial pressure (pO2), and blood oxygen were tested, and the results are as listed below: […]

[7] = group B-I: 62 mg/kg gastric gavage an hour before model
[8] = group B-II: 62 mg/kg gastric gavage immediately upon model
[9] = group C: hypoxia model mice, 62.5 mg/kg gastric gavage
[10] = group D: hypoxia model mice, 104 mg/kg gastric gavage

COCCOC(=O)C1=C(C)NC(C)=C(C(=O)OC(C)C)C1c1cccc([N+](=O)[O-])c1 (stereo not shown) [Nimodipine]
Survival Duration [1]: 55.4 ± 15.2 min | Prolonged Percentage ([1]; vs negative control): 1224.3% | Survival Duration [2, 7]: 48.44 ± 21.36 min | Prolonged Percentage [2, 7]: 56.26% | Survival Duration [2, 8]: 39.10 ± 17.30 min | Prolonged Percentage [2, 8]: 26.24% | Gasping Duration, Time [3]: 24.6 ± 4.6 s | Gasping Frequency, Times [3]: 14.5 ± 3.6 Times | Gasping Duration, Extension Rate ([3]; vs negative control): 28.6% | Gasping Frequency, Increment Rate ([3]; vs negative control): 25.6%

CC(C)NCC(O)COc1cccc2ccccc12 (stereo not shown) [Propranolol]
Prolonged Percentage ([4]; vs negative control): 108.4% | Survival Duration ([4]; within 60 minutes): 50.40 ± 16.33 min | Survival Percentage ([4]; within 60 minutes): 41.7%

O=C1O[C@H]([C@@H](O)CO)C(O)=C1O [Vitamin C, vitamin C]
Time to Reach the Platform ([5]; Day 5, Afternoon (after sodium nitrite 160 mg/kg)): 46.9 ± 15.5 s | Time to Reach the Platform ([5]; Day 5, Morning (before sodium nitrite)): 42.0 ± 24.3 s | Time to Reach the Platform ([5]; Day 6, Morning): 41.7 ± 21.1 s | Blood oxygen [6, 9]: 93.6 ± 1.3 % | Blood pH [6, 9]: 7.420 ± 0.036 | Oxygen partial pressure [6, 9]: 10.51 ± 0.96 kPa

vitamin E
Blood oxygen [6, 10]: 94.0 ± 2.1 % | Blood pH [6, 10]: 7.455 ± 0.049 | Oxygen partial pressure [6, 10]: 10.76 ± 2.14 kPa
